Results taken from the NIST ThermoML archive (doi:10.1021/je060271a).
Several values for one entry are separate records, joined by “and”; a condition that tells them apart may be missing. Equal entries are not always repeated. Numbers after ± are expanded uncertainties.

Conditions: 283.15 K, Liquid, Vibrating tube method

CCCCCC(=O)OCC(COC(=O)CCCCC)(COC(=O)CCCCC)COC(=O)CCCCC [pentaerythritol tetrahexanoate]
mass density (5731.2 kPa): 1007.5 ± 1.2 kg/m3 | mass density (5738.3 kPa): 1007.6 ± 1.2 kg/m3 | mass density (5746.2 kPa): 1007.4 ± 1.2 kg/m3 | mass density (5753.3 kPa): 1007.5 ± 1.2 kg/m3 | mass density (5760 kPa): 1007.4 ± 1.2 kg/m3 | mass density (5767.3 kPa): 1007.5 ± 1.2 kg/m3 | mass density (5775.5 kPa): 1007.5 ± 1.2 kg/m3 | mass density (5783.9 kPa): 1007.6 ± 1.2 kg/m3 | mass density (5790.7 kPa): 1007.4 ± 1.2 kg/m3 | mass density (5797.8 kPa): 1007.5 ± 1.2 kg/m3 | mass density (5804.7 kPa): 1007.5 ± 1.2 kg/m3 | mass density (5812.8 kPa): 1007.6 ± 1.2 kg/m3 | mass density (5819.9 kPa): 1007.5 ± 1.2 kg/m3 | mass density (5826.8 kPa): 1007.5 ± 1.2 kg/m3 | mass density (5833.7 kPa): 1007.4 ± 1.2 kg/m3 | mass density (5842.2 kPa): 1007.5 ± 1.2 kg/m3 | mass density (5849.3 kPa): 1007.5 ± 1.2 kg/m3 | mass density (5856.6 kPa): 1007.5 ± 1.2 kg/m3 | mass density (5863.6 kPa): 1007.7 ± 1.2 kg/m3 | mass density (5872 kPa): 1007.5 ± 1.2 kg/m3 | mass density (5878.9 kPa): 1007.5 ± 1.2 kg/m3 | mass density (5885.8 kPa): 1007.5 ± 1.2 kg/m3 | mass density (5894.4 kPa): 1007.7 ± 1.2 kg/m3 | mass density (5901.3 kPa): 1007.5 ± 1.2 kg/m3 | mass density (5908.3 kPa): 1007.6 ± 1.2 kg/m3 | mass density (5915.7 kPa): 1007.5 ± 1.2 kg/m3 | mass density (5924.3 kPa): 1007.6 ± 1.2 kg/m3 | mass density (5930 kPa): 1007.7 ± 1.2 kg/m3 | mass density (5935.7 kPa): 1007.7 ± 1.2 kg/m3 | mass density (5942.8 kPa): 1007.6 ± 1.2 kg/m3 | mass density (5953 kPa): 1007.5 ± 1.2 kg/m3 | mass density (5960.1 kPa): 1007.6 ± 1.2 kg/m3 | mass density (5968.6 kPa): 1007.6 ± 1.2 kg/m3 | mass density (5976.4 kPa): 1007.6 ± 1.2 kg/m3 | mass density (5984.7 kPa): 1007.6 ± 1.2 kg/m3 | mass density (5991.9 kPa): 1007.6 ± 1.2 kg/m3 | mass density (5999.2 kPa): 1007.7 ± 1.2 kg/m3 | mass density (6006.6 kPa): 1007.7 ± 1.2 kg/m3 | mass density (6015.4 kPa): 1007.6 ± 1.2 kg/m3 | mass density (6022.9 kPa): 1007.7 ± 1.2 kg/m3 | mass density (6030.1 kPa): 1007.6 ± 1.2 kg/m3 | mass density (6038.8 kPa): 1007.8 ± 1.2 kg/m3 | mass density (6046 kPa): 1007.6 ± 1.2 kg/m3 | mass density (6053.1 kPa): 1007.6 ± 1.2 kg/m3 | mass density (6061.9 kPa): 1007.7 ± 1.2 kg/m3 | mass density (6069.2 kPa): 1007.6 ± 1.2 kg/m3 | mass density (6076.6 kPa): 1007.8 ± 1.2 kg/m3 | mass density (6084.1 kPa): 1007.7 ± 1.2 kg/m3 | mass density (6092.7 kPa): 1007.8 ± 1.2 kg/m3 | mass density (6100.3 kPa): 1007.7 ± 1.2 kg/m3 | mass density (6107.6 kPa): 1007.6 ± 1.2 kg/m3 | mass density (6115.2 kPa): 1007.6 ± 1.2 kg/m3 | mass density (6124 kPa): 1007.8 ± 1.2 kg/m3 | mass density (6131.6 kPa): 1007.7 ± 1.2 kg/m3 | mass density (6139 kPa): 1007.7 ± 1.2 kg/m3 | mass density (6146.6 kPa): 1007.7 ± 1.2 kg/m3 | mass density (6155.4 kPa): 1007.7 ± 1.2 kg/m3 | mass density (6163 kPa): 1007.7 ± 1.2 kg/m3 | mass density (6170.1 kPa): 1007.8 ± 1.2 kg/m3 | mass density (6179.1 kPa): 1007.7 ± 1.2 kg/m3 | mass density (6186.9 kPa): 1007.6 ± 1.2 kg/m3 | mass density (6194.5 kPa): 1007.8 ± 1.2 kg/m3 | mass density (6202.1 kPa): 1007.8 ± 1.2 kg/m3 | mass density (6209.7 kPa): 1007.9 ± 1.2 kg/m3 | mass density (6218.9 kPa): 1007.8 ± 1.2 kg/m3 | mass density (6226.1 kPa): 1007.8 ± 1.2 kg/m3 | mass density (6233.7 kPa): 1007.8 ± 1.2 kg/m3 | mass density (6242.7 kPa): 1007.8 ± 1.2 kg/m3 | mass density (6250.3 kPa): 1007.9 ± 1.2 kg/m3 | mass density (6257.9 kPa): 1007.8 ± 1.2 kg/m3 | mass density (6265.5 kPa): 1007.8 ± 1.2 kg/m3 | mass density (6274.9 kPa): 1007.7 ± 1.2 kg/m3 | mass density (6282.3 kPa): 1007.9 ± 1.2 kg/m3 | mass density (6290.1 kPa): 1007.8 ± 1.2 kg/m3 | mass density (6299.1 kPa): 1007.7 ± 1.2 kg/m3 | mass density (6306.5 kPa): 1007.9 ± 1.2 kg/m3 | mass density (6314.3 kPa): 1007.8 ± 1.2 kg/m3 | mass density (6323.1 kPa): 1007.8 ± 1.2 kg/m3 | mass density (6330.4 kPa): 1007.8 ± 1.2 kg/m3 | mass density (6338.1 kPa): 1007.8 ± 1.2 kg/m3 | mass density (6346.1 kPa): 1007.8 ± 1.2 kg/m3 | mass density (6355.4 kPa): 1007.9 ± 1.2 kg/m3 | mass density (6362.3 kPa): 1007.8 ± 1.2 kg/m3 | mass density (6369.9 kPa): 1007.8 ± 1.2 kg/m3 | mass density (6377.7 kPa): 1007.8 ± 1.2 kg/m3 | mass density (6386.6 kPa): 1007.9 ± 1.2 kg/m3 | mass density (6394.2 kPa): 1007.9 ± 1.3 kg/m3 | mass density (6401.7 kPa): 1007.9 ± 1.2 kg/m3 | mass density (6409.5 kPa): 1007.9 ± 1.2 kg/m3 | mass density (6418.4 kPa): 1007.9 ± 1.2 kg/m3 | mass density (6426 kPa): 1007.9 ± 1.2 kg/m3 | mass density (6433.3 kPa): 1007.9 ± 1.2 kg/m3 | mass density (6442.5 kPa): 1007.9 ± 1.2 kg/m3 | mass density (6450.4 kPa): 1007.9 ± 1.2 kg/m3 | mass density (6458.4 kPa): 1007.9 ± 1.2 kg/m3 | mass density (6466.9 kPa): 1007.9 ± 1.2 kg/m3 | mass density (6474.6 kPa): 1007.9 ± 1.2 kg/m3 | mass density (6481.9 kPa): 1008 ± 1.2 kg/m3 | mass density (6491.1 kPa): 1007.8 ± 1.2 kg/m3 | mass density (6498.3 kPa): 1008 ± 1.2 kg/m3 | mass density (6505.6 kPa): 1008 ± 1.2 kg/m3 | mass density (6514.4 kPa): 1007.8 ± 1.2 kg/m3 | mass density (6522 kPa): 1007.9 ± 1.2 kg/m3 | mass density (6529.2 kPa): 1007.9 ± 1.2 kg/m3 | mass density (6536.7 kPa): 1008 ± 1.2 kg/m3 | mass density (6545 kPa): 1008 ± 1.2 kg/m3 | mass density (6552.2 kPa): 1007.9 ± 1.2 kg/m3 | mass density (6559.5 kPa): 1008.1 ± 1.2 kg/m3 | mass density (6566.4 kPa): 1007.9 ± 1.2 kg/m3 | mass density (6573.6 kPa): 1008 ± 1.2 kg/m3 | mass density (6578.7 kPa): 1007.9 ± 1.2 kg/m3 | mass density (6583 kPa): 1008 ± 1.2 kg/m3 | mass density (6587.1 kPa): 1008 ± 1.2 kg/m3 | mass density (6592.1 kPa): 1007.9 ± 1.2 kg/m3 | mass density (6596.3 kPa): 1008 ± 1.2 kg/m3 | mass density (6600.4 kPa): 1008.1 ± 1.2 kg/m3 | mass density (6605.4 kPa): 1007.9 ± 1.2 kg/m3 | mass density (6609.2 kPa): 1007.9 ± 1.2 kg/m3 | mass density (6613.4 kPa): 1007.9 ± 1.2 kg/m3 | mass density (6635.7 kPa): 1008 ± 1.2 kg/m3 | mass density (6640 kPa): 1008 ± 1.2 kg/m3 | mass density (6644.1 kPa): 1008.1 ± 1.2 kg/m3 | mass density (6649 kPa): 1008 ± 1.2 kg/m3 | mass density (6674.5 kPa): 1008 ± 1.2 kg/m3 | mass density (6679.6 kPa): 1008 ± 1.2 kg/m3 | mass density (6683.5 kPa): 1008.1 ± 1.2 kg/m3 | mass density (6687.7 kPa): 1008.1 ± 1.2 kg/m3 | mass density (6692 kPa): 1008.1 ± 1.2 kg/m3 | mass density (6696.5 kPa): 1008 ± 1.2 kg/m3 | mass density (6700.6 kPa): 1008 ± 1.2 kg/m3 | mass density (6704.6 kPa): 1008 ± 1.2 kg/m3 | mass density (6708.6 kPa): 1008 ± 1.2 kg/m3 | mass density (6713.2 kPa): 1008 ± 1.2 kg/m3 | mass density (6717.2 kPa): 1008.1 ± 1.2 kg/m3 | mass density (6759.5 kPa): 1008.1 ± 1.2 kg/m3 | mass density (6769.5 kPa): 1008.2 ± 1.2 kg/m3 and 1008.1 ± 1.2 kg/m3 | mass density (6769.7 kPa): 1008.1 ± 1.2 kg/m3 and 1008 ± 1.2 kg/m3 | mass density (6769.8 kPa): 1008 ± 1.2 kg/m3 and 1008.2 ± 1.2 kg/m3 and 1008.1 ± 1.2 kg/m3 | mass density (6770 kPa): 1008.1 ± 1.2 kg/m3 | mass density (6770.2 kPa): 1008 ± 1.2 kg/m3 and 1008.1 ± 1.2 kg/m3 | mass density (6770.3 kPa): 1008.1 ± 1.2 kg/m3 | mass density (6770.4 kPa): 1008.1 ± 1.2 kg/m3 | mass density (6770.5 kPa): 1008.1 ± 1.2 kg/m3 | mass density (6770.7 kPa): 1008 ± 1.2 kg/m3 | mass density (6770.9 kPa): 1008 ± 1.2 kg/m3 and 1008.1 ± 1.2 kg/m3
